Experimental findings from patent US20260297542A1, “HERBICIDE RESISTANT PLANTS” (SYNGENTA CROP PROTECTION AG, priority 2023, published 2026) are described below.

SMILES strings stand for the structures. Residue numbers refer to the chain shown, from its start.

Test in all cases: E. coli hemG growth inhibition by herbicide, AtPPO1 variant
Holding throughout (assay type): cell-based
Common to all, as to conditions: read-out: percentage growth inhibition

Assay [1] deals with T1, AtPPO1 V511L (Arabidopsis thaliana, UniProt P55826, V511L).
T1 construct: expressed in transfected cells; host or cells: E. coli BL21(DE3) hemG, pET24a plasmid
T1 sequence (P55826 35-537 V511L): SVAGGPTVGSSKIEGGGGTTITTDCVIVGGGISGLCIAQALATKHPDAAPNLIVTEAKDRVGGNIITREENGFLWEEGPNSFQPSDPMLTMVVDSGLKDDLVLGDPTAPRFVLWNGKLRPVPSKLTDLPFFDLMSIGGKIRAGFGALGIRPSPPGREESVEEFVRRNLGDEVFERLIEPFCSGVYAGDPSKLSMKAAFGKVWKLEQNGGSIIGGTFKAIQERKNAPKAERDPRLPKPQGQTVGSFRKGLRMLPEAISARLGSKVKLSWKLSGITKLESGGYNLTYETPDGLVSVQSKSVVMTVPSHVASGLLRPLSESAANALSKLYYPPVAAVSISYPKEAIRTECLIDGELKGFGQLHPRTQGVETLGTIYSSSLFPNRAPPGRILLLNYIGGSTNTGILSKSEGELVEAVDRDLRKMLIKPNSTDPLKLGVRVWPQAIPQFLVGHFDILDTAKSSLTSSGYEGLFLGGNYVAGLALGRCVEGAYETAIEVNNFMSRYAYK
In a few lines: (§1)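 AtPPO1 variants from a site-saturation library, codon-optimised and T7-driven in pET24a, were expressed in E. coli BL21(DE3) lacking hemG (hemG replaced by CmR). Growth in Terrific broth with 0.1 mM IPTG plus 6.25 ppm herbicide 0 or E, 0.78 ppm herbicide B, or DMSO was read as OD600 after 24 h at 37° C; inhibition was calculated against the DMSO culture.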

Assay [2] deals with T2, AtPPO1 V127L (Arabidopsis thaliana, UniProt P55826, V127L).
T2 construct: expressed in transfected cells; host or cells: E. coli BL21(DE3) hemG (hemG replaced by CmR), pET24a plasmid
T2 sequence (P55826 35-537 V127L): T1 sequence (P55826 35-537 V511L) with V93L, L477V
The essentials: as §1

Assay [3] deals with T3, AtPPO1 V206G (Arabidopsis thaliana, UniProt P55826, V206G).
T3 construct: expressed in transfected cells; host or cells: E. coli BL21(DE3) hemG (hemG replaced by CmR), pET24a plasmid
T3 sequence (P55826 35-537 V206G): T1 sequence (P55826 35-537 V511L) with V172G, L477V
The essentials: as §1

In assay [4] the target is T4, AtPPO1 V127I (Arabidopsis thaliana, UniProt P55826, V127I).
T4 construct: expressed in transfected cells; host or cells: E. coli BL21(DE3) hemG (hemG replaced by CmR), pET24a plasmid
T4 sequence (P55826 35-537 V127I): T1 sequence (P55826 35-537 V511L) with V93I, L477V
The essentials:
as §1

As for `C#CCN1C(=O)C(F)(F)Oc2cc(F)c(-n3c(=O)n(C)c(=S)n(C)c3=O)cc21` [Herbicide B, trifludimoxazin], the inhibition (as a rule, the percentage by which the read-out fell short of the control) at 0.78 ppm in assay [1] was 18%; in assay [2], 31%; in assay [3] it was 32%; in assay [4], 28%.
For the molecule `CCOC(=O)[C@]1(C)CC(c2cc(-n3c(=O)n(C)c(=S)n(C)c3=O)c(F)cc2Cl)=NO1` [Herbicide D, ethyl (5S)-3-[2-chloro-5-(3,5-dimethyl-2,6-dioxo-4-thioxo-1,3,5-triazinan-1-yl)-4-fluoro-phenyl]-5-methyl-4H-isoxazole-5-carboxylate], the inhibition at 6.25 ppm in assay [1] stood at 18%; in assay [2] it was 29%; in assay [3], 19%; in assay [4], 23%.
The matching figures for `CC(C)N(C)S(=O)(=O)NC(=O)c1cc(-n2c(=O)cc(C(F)(F)F)n(C)c2=O)c(F)cc1Cl` [Herbicide E, saflufenacil]: 46%, 65%, 58% and 69%.
